Experimental data: US20260184663A1, “INDENE COMPOUNDS, PHARMACEUTICAL COMPOSITIONS THEREOF, AND THEIR THERAPEUTIC APPLICATIONS” (NucMito Pharmaceuticals co. Ltd., priority 2022, published 2026)

Columns and labels:
Type in all cases: cell-based
[1] = system: SW480 (colon cancer); experiment: Antiproliferative activity (CCK-8 cell viability), SW480; details: Homo sapiens, 72 h; for inhibition at 3.3 µM: Compound concentration: 3.3 μM; for inhibition at 3.3 µM / inhibition at 10 µM: read-out: Antiproliferative activity in cancerous cells, SW480 (inhibition of cell growth); for inhibition at 10 µM: Compound concentration: 10 μM
Method in brief: (§1)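 Cells were seeded at 2,000-5,000/well (HeLa in MEM, HepG2 and SW480 in DMEM, A549 in F-12K, all with 10% FBS) and treated with compound at 3.3, 10 or 30 μM for 72 h at 37° C. CCK-8 was added for 4 h, absorbance was read at 450 nm, and viability was expressed relative to DMSO-treated wells.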

[2] = system: A431 (epidermoid carcinoma); experiment: Antiproliferative activity (CCK-8 cell viability), A431; details: Homo sapiens, 72 h; for inhibition at 3.3 µM: A-431, Compound concentration: 3.3 μM; for inhibition at 3.3 µM / inhibition at 10 µM: read-out: Antiproliferative activity in cancerous cells, A431 (inhibition of cell growth); for inhibition at 10 µM: A-431, Compound concentration: 10 μM; for inhibition at 30 µM: A-431, Compound concentration: 30 μM, read-out: Antiproliferative activity in cancerous cells, A431
Method in brief: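 Cell viability of compound-treated A431 cells was measured with a Cell Counting Kit-8. Each well received 10 μL of CCK-8 after 72 h of compound exposure, followed by 4 h incubation at 37° C. and a 450 nm plate-reader measurement. Percent viability was calculated relative to DMSO controls across replicates.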

[3] = system: HepG2 (liver cancer); experiment: Antiproliferative activity (CCK-8 cell viability), HepG2; details: Homo sapiens, 72 h; for inhibition at 3.3 µM: Compound concentration: 3.3 μM; for inhibition at 3.3 µM / inhibition at 10 µM: read-out: Antiproliferative activity in cancerous cells, HepG2 (inhibition of cell growth); for inhibition at 10 µM: Compound concentration: 10 μM
Method in brief: as §1

[4] = system: alpha-smooth muscle actin (α-SMA); experiment: Inhibition of TGF-β induced expression of alpha-smooth muscle actin (α-SMA) in CFSC cells (western blot); details: compound at 10 μM, TGF-β (10 ng/mL), 24 hours, band intensity vs TGF-β only
Experimental: The ability of a compound to inhabit the TGF-β induced expression of alpha-smooth muscle actin (α-SMA) was evaluated in CCl4-treated fat storing (CFSC) cells. α-SMA is considered as a reliable marker of hepatic stellate cell activation and a key biomarker for liver fibrosis.
CFSC cells maintained in a DMEM medium supplemented with 10% fetal bovine serum were seeded to 12-well culture dishes and grown to a confluence of 60-70% the next day. Culture was changed to a serum-free DMEM medium, and the cells were treated with a compound at 10 μM in the presence of TGF-β (10 ng/mL). The cells were incubated for another 24 hours. All culture was maintained at 37° C. in 5% carbon dioxide.
An NP-40 lysate solution (50 mM Tris (pH 7.4), 150 mM NaCl, 1% NP-40) with EDTA free cocktail added was used to lyse the cells on ice for 30 min. The lysate was collected and centrifuged at 4° C. for 10 min at 12,000 rpm. The pellet was discarded and the supernatant was transferred to a new tube. Cell lysates were loaded with 5× loading buffer and boiled for 10 min, resolved by 10% SDS-polyacrylamide gel electrophoresis (SDS-PAGE), and transferred to PVDF membrane. The membrane was blocked with 5% skim milk in Tris-buffered saline and TWEEN® 20 (TBST; 10 mM Tris-HCl (pH 8.0), 150 mM NaCl, 0.1% TWEEN® 20) for 1 h at room temperature and then incubated with α-SMA and β-actin antibodies overnight at 4° C. After washing twice with TBST, the membrane was probed with a horseradish […] anti-immunoglobulin (1:5000 dilution) for 1 h at room temperature. After two subsequent rinses in TBST, immunoreactive products were reacted with ECL and visualized by a UVP CHEMSTUDIO™ imaging system. The western blotting bands are quantitated using an ImageJ software. The percentage of inhibition was obtained by calculating the percentage decrease in the band intensity compared to the one treated with TGF-β only.
The results are summarized in Table 1, where A represents a value no less of 80% inhibition, B represents a value less than […] but no less than […], C represents a value less than 50% but no less than 30% inhibition, and D represents a value less than 30% inhibition with a compound at 10 μM.

[5] = system: MDA-MB-231 (breast cancer); experiment: Antiproliferative activity (CCK-8 cell viability), MDA-MB-231; details: Homo sapiens, 72 h, read-out: Antiproliferative activity in cancerous cells, MDA-MB-231 (inhibition of cell growth); for inhibition at 3.3 µM: Compound concentration: 3.3 μM; for inhibition at 10 µM: Compound concentration: 10 μM
Method in brief: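 In this CCK-8 viability assay, MDA-MB-231 cells maintained in Dulbecco's modified Eagle's medium containing 10% fetal bovine serum were placed in 96-well plates (2,000-5,000 cells/well) and treated with compound for 72 h at 37° C. A 4 h incubation with 10 μL CCK-8 followed, plates were read at 450 nm, and viability was expressed against DMSO vehicle wells across replicates.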

[6] = system: A549 (lung adenocarcinoma); experiment: Antiproliferative activity (CCK-8 cell viability), A549; details: Homo sapiens, 72 h; for inhibition at 3.3 µM: Compound concentration: 3.3 μM; for inhibition at 3.3 µM / inhibition at 10 µM: read-out: Antiproliferative activity in cancerous cells, A549 (inhibition of cell growth); for inhibition at 10 µM: Compound concentration: 10 μM; for inhibition at 30 µM: Compound concentration: 30 μM, read-out: Antiproliferative activity in cancerous cells, A549
Method in brief: as §1

[7] = system: B16F10 (malignant melanoma); experiment: Antiproliferative activity (CCK-8 cell viability), B16F10; details: Mus musculus, 72 h; for inhibition at 3.3 µM: B16-F10, Compound concentration: 3.3 μM; for inhibition at 3.3 µM / inhibition at 10 µM: read-out: Antiproliferative activity in cancerous cells, B16F10 (inhibition of cell growth); for inhibition at 10 µM: B16-F10, Compound concentration: 10 μM; for inhibition at 30 µM: B16-F10, Compound concentration: 30 μM, read-out: Antiproliferative activity in cancerous cells, B16F10
Method in brief: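 Attached B16F10 cells in 96-well plates were incubated with compound at 37° C for 72 h, followed by 10 μL CCK-8 reagent per well and a further 4 h incubation. A multi-well plate reader measured absorbance at 450 nm. Percent viability across replicates was calculated against DMSO vehicle-treated cells.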

[8] = system: HeLa (cervical cancer); experiment: Antiproliferative activity (CCK-8 cell viability), HeLa; details: Homo sapiens, 72 h, read-out: Antiproliferative activity in cancerous cells, HELA (inhibition of cell growth); for inhibition at 3.3 µM: Compound concentration: 3.3 μM; for inhibition at 10 µM: Compound concentration: 10 μM
Method in brief: as §1

Compound	inhibition at 3.3 µM [1] [%]	inhibition at 10 µM [1] [%]	inhibition at 3.3 µM [2] [%]	inhibition at 10 µM [2] [%]	inhibition at 30 µM [2] [%]	inhibition at 3.3 µM [3] [%]	inhibition at 10 µM [3] [%]	inhibition at 10 µM [4] [%]	inhibition at 3.3 µM [5] [%]	inhibition at 10 µM [5] [%]	inhibition at 3.3 µM [6] [%]	inhibition at 10 µM [6] [%]	inhibition at 3.3 µM [7] [%]	inhibition at 10 µM [7] [%]	inhibition at 30 µM [7] [%]	inhibition at 3.3 µM [8] [%]	inhibition at 10 µM [8] [%]	inhibition at 30 µM [6] [%]	inhibition at 30 µM ([1]; Compound concentration: 30 μM, read-out: Antiproliferative activity in cancerous cells, SW480) [%]	inhibition at 30 µM ([3]; Compound concentration: 30 μM, read-out: Antiproliferative activity in cancerous cells, HepG2) [%]
O=C(O)CC1=C(Cc2ccc(Oc3ccc(F)cc3)cc2)/C(=C/c2ccc(CN3CCOCC3)cc2)c2ccc(F)cc21 [A113, (Z)-2-(5-Fluoro-2-(4-(4-fluorophenoxy)benzyl)-1-(4-(morpholinomethyl)-benzylidene)-1H-inden-3-yl)acetic acid]	≥ 50	≥ 50	< 30	< 30	< 30	≥ 50	≥ 50	> 80	≥ 50	≥ 50	30 to 50	30 to 50	< 30	< 30	< 30	≥ 50	≥ 50	–	–	–
COc1ccc2c(c1)C(CC(=O)O)=C(C)/C2=C/c1cccc(COc2ccccc2)c1 [B20, (Z)-2-(5-Methoxy-2-methyl-1-(3-(phenoxymethyl)benzylidene)-1H-inden-3-yl)-acetic acid]	30 to 50	30 to 50	< 30	< 30	< 30	< 30	< 30	> 80	30 to 50	30 to 50	< 30	< 30	< 30	< 30	< 30	< 30	30 to 50	< 30	–	–
COc1ccc2c(c1)/C(=C\c1ccc(Oc3ccc(F)cc3)cc1)C=C2CC(=O)O [C2, (Z)-2-(1-(4-(4-Fluorophenoxy)benzylidene)-6-methoxy-1H-inden-3-yl)acetic acid]	≥ 50	30 to 50	30 to 50	≥ 50	–	30 to 50	30 to 50	> 80	≥ 50	≥ 50	< 30	< 30	< 30	≥ 50	–	30 to 50	≥ 50	–	–	–
O=C(O)CC1=C(Cc2ccc(Oc3ccc(F)cc3)cc2)/C(=C/c2cccc(COc3ccccc3)c2)c2ccc(F)cc21 [A101, (Z)-2-(5-Fluoro-2-(4-(4-fluorophenoxy)benzyl)-1-(3-(phenoxymethyl)-benzylidene)-1H-inden-3-yl)acetic acid]	≥ 50	≥ 50	≥ 50	≥ 50	–	≥ 50	≥ 50	> 80	≥ 50	≥ 50	≥ 50	≥ 50	≥ 50	≥ 50	–	≥ 50	≥ 50	–	–	–
CC1=C(CC(=O)O)c2cc(C)ccc2/C1=C\c1cccc(COc2ccccc2)c1 [B12, (Z)-2-(2,5-Dimethyl-1-(3-(phenoxymethyl)benzylidene)-1H-inden-3-yl)acetic acid]	< 30	< 30	≥ 50	≥ 50	–	< 30	≥ 50	> 80	≥ 50	≥ 50	30 to 50	≥ 50	< 30	30 to 50	–	< 30	≥ 50	–	–	–
CC1=C(CC(=O)O)c2cc(F)ccc2/C1=C\c1ccc(Sc2nc3ccccc3[nH]2)cc1 [C36, (Z)-2-(1-(4-((1H-Benzo[d]imidazol-2-yl)thio)benzylidene)-5-fluoro-2-methyl-1H-inden-3-yl)acetic acid]	< 30	30 to 50	< 30	< 30	< 30	< 30	< 30	< 30	< 30	30 to 50	< 30	< 30	< 30	< 30	30 to 50	< 30	30 to 50	30 to 50	30 to 50	< 30
CC1=C(CC(=O)O)c2c(F)cccc2/C1=C\c1cccc(Oc2ccccc2)c1 [C21, (Z)-2-(4-Fluoro-2-methyl-1-(3-phenoxybenzylidene)-1H-inden-3-yl)acetic acid]	< 30	< 30	< 30	≥ 50	–	< 30	30 to 50	< 30	≥ 50	≥ 50	30 to 50	30 to 50	< 30	< 30	–	30 to 50	≥ 50	–	–	–
